15 compounds from patent publication US20240109900A1, “AZABICYCLIC SHP2 INHIBITORS” (IRBM S.P.A., priority 2021, published 2024) can be followed below.

The assay has as its system ERK phosphorylation in KYSE-520 cells. The experiment in a line: Phospho-ERK cellular assay. The format is cell-based. Particulars: Homo sapiens, KYSE-520, 2 h, KYSE-520 cells, 2 h at 37° C., phospho-ERK1/2 (Thr202/Tyr204) TR-FRET; read-out: PERK IC50. The procedure:
ERK phosphorylation was detected using the “Advanced phospho-ERK1/2 (Thr202/Tyr204)” TR-FRET kit (Cisbio, Cat #64AERPEG/H), following the manufacturer reagents and instructions.
Briefly, 20.000/well KYSE-520 cells (DSMZ ACC 371) were plated in 6 μL RPMI-1640 (Invitrogen) growth medium, into 384 white low-volume high base TC microplates (Greiner). After an overnight incubation, cells were treated with DMSO serial diluted compounds and incubated for 2 h at 37° C. After incubation, 2 μL/well of 4×Lysis Buffer (Cisbio 64KL1FDF), were added and incubated with cells for 30 min on gentle shaking. Finally, lysates were added with 2 μL/well of Eu cryptate (donor) and D2 (acceptor) conjugated antibodies (as provided by the Cisbio kit #64AERPEG/H) diluted 1:100 in Detection Buffer (as provided by the Cisbio kit #64AERPEG/H). Plates were then sealed and incubated at room temperature in the dark. After an overnight incubation, the TR-FRET signal was detected on a suitable reader (Envision, PerkinElmer). The lower the TR-FRET signal the higher the higher the SHP2 inhibition in cells.
The activity of each compound dilution was calculated as percentage between vehicle DMSO treated cells and no cells, 0% inhibition and 100% inhibition respectively. The percentage activity is fitted against the compound dilutions with a four-parameter logistic regression. The inflection point (i.e. the concentration at which half-maximal inhibition is achieved) is the IC50.

For the compound `NCC1(c2ccccc2F)C2CCN(c3cc4nc(Sc5ccnc(N)c5Cl)cnc4[nH]3)CC21` (stereo not drawn) [Example 59, 4-((6-(7-(aminomethyl)-7-(2-fluorophenyl)-3-azabicyclo[4.1.0]heptan-3-yl)-5H-pyrrolo[2,3-b]pyrazin-2-yl)thio)-3-chloropyridin-2-amine], the IC50 (as a rule, the concentration that inhibits the measured activity by half) is less than 1 µM.

With `Cc1cc([C@@]2(CN)[C@@H]3CCN(c4cnc5c(-c6cccc(-c7ncco7)c6Cl)n[nH]c5n4)C[C@@H]32)no1` [Example 111, ((1S,6R,7S)-3-(3-(2-chloro-3-(oxazol-2-yl)phenyl)-1H-pyrazolo[3,4-b]pyrazin-6-yl)-7-(5-methylisoxazol-3-yl)-3-azabicyclo[4.1.0]heptan-7-yl)methanamine], the IC50 is less than 1 µM.

In the case of `Cc1cc(C(N)=O)ncc1-c1n[nH]c2nc(N3CC[C@@H]4[C@H](C3)[C@@]4(CN)c3ccccc3F)cnc12` [Example 307, 5-(6-((1S,6R,7R)-7-(aminomethyl)-7-(2-fluorophenyl)-3-azabicyclo[4.1.0]heptan-3-yl)-1H-pyrazolo[3,4-b]pyrazin-3-yl)-4-methylpicolinamide], the IC50 was less than 1 µM.

As to `Cc1c(-c2n[nH]c3nc(N4CC[C@@H]5[C@H](C4)[C@@]5(CN)c4cc(F)cc(F)c4)cnc23)ccc2nn(C)cc12` [Example 308, ((1S,6R,7R)-7-(3,5-difluorophenyl)-3-(3-(2,4-dimethyl-2H-indazol-5-yl)-1H-pyrazolo[3,4-b]pyrazin-6-yl)-3-azabicyclo[4.1.0]heptan-7-yl)methanamine], the IC50 was less than 1 µM.

For the compound `N#CNC(=O)c1ccc(-c2n[nH]c3nc(N4CC[C@@H]5[C@H](C4)[C@@]5(CN)c4ccccc4F)cnc23)c(Cl)c1` [Example 310, 4-(6-((1S,6R,7R)-7-(aminomethyl)-7-(2-fluorophenyl)-3-azabicyclo[4.1.0]heptan-3-yl)-1H-pyrazolo[3,4-b]pyrazin-3-yl)-3-chloro-N-cyanobenzamide], the IC50 was greater than 5 µM.

For the compound `NC[C@]1(c2ccccc2F)[C@@H]2CCN(c3cnc4c(-c5ccc(-c6cc(F)c(O)c(F)c6)cc5Cl)n[nH]c4n3)C[C@@H]21` [Example 313, 4′-(6-((1S,6R,7R)-7-(aminomethyl)-7-(2-fluorophenyl)-3-azabicyclo[4.1.0]heptan-3-yl)-1H-pyrazolo[3,4-b]pyrazin-3-yl)-3′-chloro-3,5-difluoro-[1,1′-biphenyl]-4-ol], the IC50 was less than 1 µM.

For `NC[C@]1(c2ccccc2F)[C@@H]2CCN(c3cnc4c(-c5ccc(CC(N)=O)cc5Cl)n[nH]c4n3)C[C@@H]21` [Example 328, 2-(4-(6-((1S,6R,7R)-7-(aminomethyl)-7-(2-fluorophenyl)-3-azabicyclo[4.1.0]heptan-3-yl)-1H-pyrazolo[3,4-b]pyrazin-3-yl)-3-chlorophenyl)acetamide], the IC50 was greater than 5 µM.

Turning to `NC[C@]1(c2ccccc2F)[C@@H]2CCN(c3nc4nc(Sc5ccnc(-n6cccn6)c5Cl)cnc4[nH]3)C[C@@H]21` [Example 342, ((1S,6R,7R)-3-(5-((3-chloro-2-(1H-pyrazol-1-yl)pyridin-4-yl)thio)-1H-imidazo[4,5-b]pyrazin-2-yl)-7-(2-fluorophenyl)-3-azabicyclo[4.1.0]heptan-7-yl)methanamine], the IC50 is greater than 5 µM.

For the compound `CC(C)(C)C#Cc1n[nH]c2nc(N3CC[C@@H]4[C@H](C3)[C@@]4(CN)c3ccccc3F)cnc12` [Example 366, ((1S,6R,7R)-3-(3-(3,3-dimethylbut-1-yn-1-yl)-1H-pyrazolo[3,4-b]pyrazin-6-yl)-7-(2-fluorophenyl)-3-azabicyclo[4.1.0]heptan-7-yl)methanamine], the IC50 is less than 1 µM.

Regarding `NC[C@]1(c2ccccc2F)[C@@H]2CCN(c3cnc4c(-c5ccc(-c6nsc(O)n6)cc5Cl)n[nH]c4n3)C[C@@H]21` [Example 379, 3-(4-(6-((1S,6R,7R)-7-(aminomethyl)-7-(2-fluorophenyl)-3-azabicyclo[4.1.0]heptan-3-yl)-1H-pyrazolo[3,4-b]pyrazin-3-yl)-3-chlorophenyl)-1,2,4-thiadiazol-5-ol], the IC50 is greater than 5 µM.

For `NC[C@]1(c2ccsn2)[C@@H]2CN(c3cnc4c(-c5ccc6nn(C(F)F)cc6c5Cl)n[nH]c4n3)C[C@@H]21` [Example 468, ((1R,5S,6r)-3-(3-(4-chloro-2-(difluoromethyl)-2H-indazol-5-yl)-1H-pyrazolo[3,4-b]pyrazin-6-yl)-6-(isothiazol-3-yl)-3-azabicyclo[3.1.0]hexan-6-yl)methanamine], the IC50 was less than 1 µM.

`Cc1csc([C@@]2(CN)[C@@H]3CCN(c4cnc5c(-c6ccc(F)c7ncccc67)c[nH]c5n4)C[C@@H]32)n1` [Example 502, ((1S,6R,7S)-3-(7-(8-fluoroquinolin-5-yl)-5H-pyrrolo[2,3-b]pyrazin-3-yl)-7-(4-methylthiazol-2-yl)-3-azabicyclo[4.1.0]heptan-7-yl)methanamine]: the IC50 was less than 1 µM.

For the compound `Cc1csc([C@@]2(CN)[C@@H]3CN(c4cnc5c(-c6ccnc(-n7cccn7)c6Cl)n[nH]c5n4)C[C@@H]32)n1` [Example 516, ((1R,5S,6r)-3-(3-(3-chloro-2-(1H-pyrazol-1-yl)pyridin-4-yl)-1H-pyrazolo[3,4-b]pyrazin-6-yl)-6-(4-methylthiazol-2-yl)-3-azabicyclo[3.1.0]hexan-6-yl)methanamine], the IC50 is less than 1 µM.

For the compound `Cc1csc([C@@]2(CN)[C@@H]3CN(c4cnc(Sc5ccnc(-n6cccn6)c5Cl)cn4)C[C@@H]32)n1` [Example 520, ((1R,5S,6r)-3-(5-((3-chloro-2-(1H-pyrazol-1-yl)pyridin-4-yl)thio)pyrazin-2-yl)-6-(4-methylthiazol-2-yl)-3-azabicyclo[3.1.0]hexan-6-yl)methanamine], the IC50 is less than 1 µM.

`Cc1csc([C@@]2(CN)[C@@H]3CN(c4nc(C)n(-c5cccc(Cl)c5Cl)c(=O)c4Cl)C[C@@H]32)n1` [Example 526, 6-((1R,5S,6r)-6-(aminomethyl)-6-(4-methylthiazol-2-yl)-3-azabicyclo[3.1.0]hexan-3-yl)-5-chloro-3-(2,3-dichlorophenyl)-2-methylpyrimidin-4(3H)-one]: the IC50 was greater than 5 µM.
